Drawing on ChEMBL document CHEMBL5291721, “A preclinical secondary pharmacology resource illuminates target-adverse drug reaction associations of marketed drugs” (Nat Commun, 2023), this text covers AC50 for nine compounds.

A word on the AC50: it is the concentration at which the activity in the assay is half-maximal.

Bounds are passed on as bounds.

Some targets named below: D(3) dopamine receptor (Homo sapiens, UniProt P35462); Histamine H3 receptor (Homo sapiens, UniProt Q9Y5N1); Mu-type opioid receptor (Homo sapiens, UniProt P35372).
In a further test the target is T1, Estrogen receptor (Homo sapiens, UniProt P03372).
T1 sequence (P03372 whole entry): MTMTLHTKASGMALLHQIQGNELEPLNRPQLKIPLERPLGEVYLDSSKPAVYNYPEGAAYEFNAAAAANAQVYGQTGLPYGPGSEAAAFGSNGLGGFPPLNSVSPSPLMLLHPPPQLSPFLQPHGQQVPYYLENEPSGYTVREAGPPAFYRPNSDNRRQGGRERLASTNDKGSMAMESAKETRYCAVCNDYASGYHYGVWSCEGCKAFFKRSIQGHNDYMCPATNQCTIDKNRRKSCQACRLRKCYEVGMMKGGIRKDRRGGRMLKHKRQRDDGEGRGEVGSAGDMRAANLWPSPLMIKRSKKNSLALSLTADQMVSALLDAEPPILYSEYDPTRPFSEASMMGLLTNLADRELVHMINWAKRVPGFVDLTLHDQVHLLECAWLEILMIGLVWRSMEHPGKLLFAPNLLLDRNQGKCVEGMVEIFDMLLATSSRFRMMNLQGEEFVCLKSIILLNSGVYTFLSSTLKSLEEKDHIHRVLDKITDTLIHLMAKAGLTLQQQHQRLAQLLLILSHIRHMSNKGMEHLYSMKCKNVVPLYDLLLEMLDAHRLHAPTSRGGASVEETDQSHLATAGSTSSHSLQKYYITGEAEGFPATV

Test [1] has as its target Voltage-gated inwardly rectifying potassium channel KCNH2 (Homo sapiens, UniProt Q12809). Format: functional. To be noted: read-out: AC50.
Test [2] concerns the target T2, Amine oxidase [flavin-containing] A (Homo sapiens, UniProt P21397).
T2 sequence (P21397 whole entry): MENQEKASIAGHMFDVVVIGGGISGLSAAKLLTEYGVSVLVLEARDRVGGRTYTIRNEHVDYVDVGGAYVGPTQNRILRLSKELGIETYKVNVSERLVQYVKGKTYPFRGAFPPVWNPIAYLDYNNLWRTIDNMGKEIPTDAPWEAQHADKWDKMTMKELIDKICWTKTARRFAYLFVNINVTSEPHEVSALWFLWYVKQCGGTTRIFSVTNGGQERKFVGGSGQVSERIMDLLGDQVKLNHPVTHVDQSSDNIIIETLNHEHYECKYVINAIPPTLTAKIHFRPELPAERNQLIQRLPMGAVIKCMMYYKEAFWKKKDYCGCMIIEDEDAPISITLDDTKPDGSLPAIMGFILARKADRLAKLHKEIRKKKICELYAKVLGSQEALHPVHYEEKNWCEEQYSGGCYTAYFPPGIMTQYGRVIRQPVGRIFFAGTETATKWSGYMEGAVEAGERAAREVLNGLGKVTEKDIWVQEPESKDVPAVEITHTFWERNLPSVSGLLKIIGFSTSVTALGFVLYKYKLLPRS
Format: functional.

In test [3] the target is cGMP-inhibited 3',5'-cyclic phosphodiesterase 3A (Homo sapiens, UniProt Q14432). Format: functional.
Chain of cGMP-inhibited 3',5'-cyclic phosphodiesterase 3A (Q14432 whole entry): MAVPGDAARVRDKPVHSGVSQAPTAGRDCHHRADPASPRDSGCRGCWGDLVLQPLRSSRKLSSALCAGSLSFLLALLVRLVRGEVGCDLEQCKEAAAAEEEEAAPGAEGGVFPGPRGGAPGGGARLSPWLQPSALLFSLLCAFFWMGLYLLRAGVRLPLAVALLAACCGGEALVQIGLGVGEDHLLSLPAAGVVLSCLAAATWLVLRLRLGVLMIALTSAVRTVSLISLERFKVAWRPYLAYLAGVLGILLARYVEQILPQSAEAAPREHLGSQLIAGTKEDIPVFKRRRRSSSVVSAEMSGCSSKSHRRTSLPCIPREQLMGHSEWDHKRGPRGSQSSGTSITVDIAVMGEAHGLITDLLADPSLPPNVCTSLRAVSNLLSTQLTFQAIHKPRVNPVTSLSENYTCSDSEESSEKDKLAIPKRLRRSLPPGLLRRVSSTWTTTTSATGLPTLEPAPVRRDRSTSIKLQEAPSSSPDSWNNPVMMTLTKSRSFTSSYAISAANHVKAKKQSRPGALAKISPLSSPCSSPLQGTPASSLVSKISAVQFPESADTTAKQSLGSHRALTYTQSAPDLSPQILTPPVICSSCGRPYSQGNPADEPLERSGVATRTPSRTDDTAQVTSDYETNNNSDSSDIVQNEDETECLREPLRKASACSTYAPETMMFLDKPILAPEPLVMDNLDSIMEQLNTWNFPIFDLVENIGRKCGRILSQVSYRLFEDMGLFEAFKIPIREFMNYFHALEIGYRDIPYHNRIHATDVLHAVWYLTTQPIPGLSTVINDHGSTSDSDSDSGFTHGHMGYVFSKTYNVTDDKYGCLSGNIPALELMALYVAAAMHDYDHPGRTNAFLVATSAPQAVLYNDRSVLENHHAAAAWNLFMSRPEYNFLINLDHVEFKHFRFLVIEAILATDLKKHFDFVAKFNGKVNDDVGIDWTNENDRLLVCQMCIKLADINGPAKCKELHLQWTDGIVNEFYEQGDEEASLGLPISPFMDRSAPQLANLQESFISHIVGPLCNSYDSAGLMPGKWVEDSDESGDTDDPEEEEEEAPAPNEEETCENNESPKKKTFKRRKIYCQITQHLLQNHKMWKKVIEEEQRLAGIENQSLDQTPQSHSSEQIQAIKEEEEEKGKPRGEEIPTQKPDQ
The target in the next test is T3, Progesterone receptor (Homo sapiens, UniProt P06401).
T3 sequence (P06401 whole entry): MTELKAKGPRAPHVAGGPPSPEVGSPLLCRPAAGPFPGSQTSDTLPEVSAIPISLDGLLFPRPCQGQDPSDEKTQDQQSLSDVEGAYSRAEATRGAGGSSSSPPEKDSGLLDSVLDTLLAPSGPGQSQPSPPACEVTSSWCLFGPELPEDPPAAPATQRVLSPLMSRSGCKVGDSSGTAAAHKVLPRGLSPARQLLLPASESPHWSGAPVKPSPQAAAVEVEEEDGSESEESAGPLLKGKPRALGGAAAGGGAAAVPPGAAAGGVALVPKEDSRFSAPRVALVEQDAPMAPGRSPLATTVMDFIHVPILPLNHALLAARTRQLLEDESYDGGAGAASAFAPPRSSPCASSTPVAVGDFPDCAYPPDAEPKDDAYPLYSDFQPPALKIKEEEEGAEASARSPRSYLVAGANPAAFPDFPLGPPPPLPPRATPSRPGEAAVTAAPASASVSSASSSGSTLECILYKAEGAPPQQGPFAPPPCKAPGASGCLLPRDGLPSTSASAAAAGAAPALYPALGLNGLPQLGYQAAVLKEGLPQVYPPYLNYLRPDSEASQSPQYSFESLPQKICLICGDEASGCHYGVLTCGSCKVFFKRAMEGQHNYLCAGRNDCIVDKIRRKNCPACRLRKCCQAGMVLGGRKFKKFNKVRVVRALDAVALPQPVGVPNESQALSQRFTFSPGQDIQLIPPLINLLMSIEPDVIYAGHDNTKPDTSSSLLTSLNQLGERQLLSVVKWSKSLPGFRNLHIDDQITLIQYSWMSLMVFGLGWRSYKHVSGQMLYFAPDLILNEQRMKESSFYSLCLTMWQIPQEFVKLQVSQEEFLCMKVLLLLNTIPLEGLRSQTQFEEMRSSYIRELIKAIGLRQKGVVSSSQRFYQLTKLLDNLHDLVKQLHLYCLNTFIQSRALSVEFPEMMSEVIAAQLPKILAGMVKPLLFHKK

The target in test [4] is T4, Prostaglandin G/H synthase 1 (Homo sapiens, UniProt P23219). Format: functional.
Test [5] has as its target T4, Prostaglandin G/H synthase 1. Format: functional. The source holds these as a separate data set.
In test [6] the target is Sodium-dependent noradrenaline transporter (Homo sapiens, UniProt P23975).
Chain of Sodium-dependent noradrenaline transporter (P23975 whole entry): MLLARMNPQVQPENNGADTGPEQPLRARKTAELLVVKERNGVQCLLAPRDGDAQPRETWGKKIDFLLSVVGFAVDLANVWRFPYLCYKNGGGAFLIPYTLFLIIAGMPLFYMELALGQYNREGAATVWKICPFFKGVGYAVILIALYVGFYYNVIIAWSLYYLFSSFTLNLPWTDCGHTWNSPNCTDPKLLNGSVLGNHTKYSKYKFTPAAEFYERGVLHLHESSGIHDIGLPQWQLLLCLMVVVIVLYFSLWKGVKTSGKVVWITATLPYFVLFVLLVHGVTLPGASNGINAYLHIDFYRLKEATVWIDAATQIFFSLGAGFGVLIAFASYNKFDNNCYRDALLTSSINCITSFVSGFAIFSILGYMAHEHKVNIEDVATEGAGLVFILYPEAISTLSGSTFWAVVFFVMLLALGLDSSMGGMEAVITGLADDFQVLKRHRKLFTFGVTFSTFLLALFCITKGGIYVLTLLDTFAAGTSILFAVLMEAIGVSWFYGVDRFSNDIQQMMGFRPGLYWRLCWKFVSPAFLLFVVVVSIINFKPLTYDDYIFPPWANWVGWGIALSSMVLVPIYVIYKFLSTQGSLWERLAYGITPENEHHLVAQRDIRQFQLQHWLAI
The target in test [7] is Sodium-dependent dopamine transporter (Homo sapiens, UniProt Q01959).
Chain of Sodium-dependent dopamine transporter (Q01959 whole entry): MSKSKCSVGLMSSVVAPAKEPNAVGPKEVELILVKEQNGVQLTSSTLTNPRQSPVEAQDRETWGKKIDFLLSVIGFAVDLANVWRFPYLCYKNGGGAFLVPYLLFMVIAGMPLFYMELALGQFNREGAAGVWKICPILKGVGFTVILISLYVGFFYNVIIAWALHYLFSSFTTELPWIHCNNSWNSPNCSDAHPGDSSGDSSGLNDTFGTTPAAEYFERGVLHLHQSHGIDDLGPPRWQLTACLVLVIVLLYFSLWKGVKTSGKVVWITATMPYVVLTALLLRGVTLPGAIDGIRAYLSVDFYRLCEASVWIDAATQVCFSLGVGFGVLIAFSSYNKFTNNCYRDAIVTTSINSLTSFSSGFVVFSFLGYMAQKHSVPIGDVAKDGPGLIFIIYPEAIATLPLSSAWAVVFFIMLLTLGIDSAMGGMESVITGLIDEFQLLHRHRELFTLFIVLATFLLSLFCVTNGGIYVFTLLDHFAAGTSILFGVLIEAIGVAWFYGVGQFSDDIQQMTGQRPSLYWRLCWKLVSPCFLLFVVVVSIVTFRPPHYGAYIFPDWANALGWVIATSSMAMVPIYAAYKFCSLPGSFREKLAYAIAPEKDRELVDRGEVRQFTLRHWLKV
The target of test [8] is Sodium-dependent serotonin transporter (Homo sapiens, UniProt P31645).
Chain of Sodium-dependent serotonin transporter (P31645 whole entry): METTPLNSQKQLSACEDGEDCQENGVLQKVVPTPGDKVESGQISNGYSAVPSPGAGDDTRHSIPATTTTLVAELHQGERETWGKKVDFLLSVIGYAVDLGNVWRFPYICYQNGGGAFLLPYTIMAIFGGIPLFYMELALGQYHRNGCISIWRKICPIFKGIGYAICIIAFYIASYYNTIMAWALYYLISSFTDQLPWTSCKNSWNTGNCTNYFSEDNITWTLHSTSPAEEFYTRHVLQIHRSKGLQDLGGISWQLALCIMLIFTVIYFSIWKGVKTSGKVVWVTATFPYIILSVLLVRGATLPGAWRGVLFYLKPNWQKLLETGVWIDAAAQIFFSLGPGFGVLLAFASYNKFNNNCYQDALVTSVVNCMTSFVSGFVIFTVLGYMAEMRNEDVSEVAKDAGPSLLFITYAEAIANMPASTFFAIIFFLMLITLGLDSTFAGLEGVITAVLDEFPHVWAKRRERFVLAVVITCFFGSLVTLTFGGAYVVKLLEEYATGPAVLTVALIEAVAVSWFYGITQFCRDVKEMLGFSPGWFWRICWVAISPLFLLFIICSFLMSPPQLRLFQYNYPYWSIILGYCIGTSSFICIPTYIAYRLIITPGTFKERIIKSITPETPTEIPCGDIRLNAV
Also: assay procedure not described here.

Chain of Mu-type opioid receptor (P35372 whole entry): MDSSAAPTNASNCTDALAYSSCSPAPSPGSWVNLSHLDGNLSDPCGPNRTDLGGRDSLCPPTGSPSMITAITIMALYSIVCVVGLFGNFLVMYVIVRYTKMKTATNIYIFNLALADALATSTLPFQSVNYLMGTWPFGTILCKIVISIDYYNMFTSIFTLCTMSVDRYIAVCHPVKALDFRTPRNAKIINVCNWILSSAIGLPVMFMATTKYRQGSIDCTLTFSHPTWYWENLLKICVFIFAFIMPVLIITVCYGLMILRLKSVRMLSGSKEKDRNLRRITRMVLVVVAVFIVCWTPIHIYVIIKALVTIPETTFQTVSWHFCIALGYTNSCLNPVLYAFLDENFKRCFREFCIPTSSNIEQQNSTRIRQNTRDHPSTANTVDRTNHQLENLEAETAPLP
Chain of Histamine H3 receptor (Q9Y5N1 whole entry): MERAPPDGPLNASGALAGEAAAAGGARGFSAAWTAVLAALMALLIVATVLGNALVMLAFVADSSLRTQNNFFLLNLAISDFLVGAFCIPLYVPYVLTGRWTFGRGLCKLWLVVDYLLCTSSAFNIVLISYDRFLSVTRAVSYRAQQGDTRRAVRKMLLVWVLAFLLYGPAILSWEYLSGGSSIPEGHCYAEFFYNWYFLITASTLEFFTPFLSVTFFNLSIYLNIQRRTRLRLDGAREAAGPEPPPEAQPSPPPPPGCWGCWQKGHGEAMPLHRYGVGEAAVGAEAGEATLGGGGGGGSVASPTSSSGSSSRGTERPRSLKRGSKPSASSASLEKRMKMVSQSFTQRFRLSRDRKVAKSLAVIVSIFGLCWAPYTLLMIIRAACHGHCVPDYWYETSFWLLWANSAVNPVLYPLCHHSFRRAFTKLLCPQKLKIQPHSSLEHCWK
Chain of Voltage-gated inwardly rectifying potassium channel KCNH2 (Q12809 whole entry): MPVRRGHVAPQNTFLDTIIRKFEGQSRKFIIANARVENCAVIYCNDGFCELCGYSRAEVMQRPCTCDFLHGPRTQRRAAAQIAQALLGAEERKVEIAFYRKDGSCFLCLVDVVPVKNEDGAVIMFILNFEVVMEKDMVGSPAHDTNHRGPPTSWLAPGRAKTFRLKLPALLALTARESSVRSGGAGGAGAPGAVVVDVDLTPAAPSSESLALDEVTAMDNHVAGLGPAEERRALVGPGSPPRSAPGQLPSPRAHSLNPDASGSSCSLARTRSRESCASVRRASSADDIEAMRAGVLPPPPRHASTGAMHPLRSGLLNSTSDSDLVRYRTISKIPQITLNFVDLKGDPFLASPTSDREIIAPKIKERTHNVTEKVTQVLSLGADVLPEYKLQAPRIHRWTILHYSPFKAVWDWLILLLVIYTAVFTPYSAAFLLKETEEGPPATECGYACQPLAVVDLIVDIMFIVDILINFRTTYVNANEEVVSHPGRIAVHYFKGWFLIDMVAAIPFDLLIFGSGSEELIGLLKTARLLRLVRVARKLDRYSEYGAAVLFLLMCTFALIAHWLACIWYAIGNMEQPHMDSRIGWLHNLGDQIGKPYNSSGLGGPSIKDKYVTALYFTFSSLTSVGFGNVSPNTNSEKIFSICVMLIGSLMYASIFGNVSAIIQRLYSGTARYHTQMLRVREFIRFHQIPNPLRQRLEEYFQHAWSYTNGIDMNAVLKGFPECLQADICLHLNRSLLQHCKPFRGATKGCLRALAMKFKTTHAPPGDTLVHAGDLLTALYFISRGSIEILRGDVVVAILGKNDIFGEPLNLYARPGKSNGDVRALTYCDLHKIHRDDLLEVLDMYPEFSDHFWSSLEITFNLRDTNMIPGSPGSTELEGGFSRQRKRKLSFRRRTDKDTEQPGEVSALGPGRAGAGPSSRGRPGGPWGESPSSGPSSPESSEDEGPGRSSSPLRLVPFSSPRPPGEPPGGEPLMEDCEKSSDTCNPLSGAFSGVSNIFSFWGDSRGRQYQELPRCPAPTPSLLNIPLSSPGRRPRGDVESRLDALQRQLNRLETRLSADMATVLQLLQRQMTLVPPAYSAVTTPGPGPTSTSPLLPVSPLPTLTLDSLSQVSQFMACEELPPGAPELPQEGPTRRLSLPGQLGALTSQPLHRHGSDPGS

Regarding `Cc1cc(CCN2CCN(c3cccc(Cl)c3)CC2)n[nH]1` [MEPIPRAZOLE], the AC50 is 0.0358 µM on D(3) dopamine receptor; greater than 30 µM at Estrogen receptor; greater than 30 µM at Histamine H3 receptor; 2.71 µM in test [1]; greater than 30 µM in test [2]; 15.7 µM at Mu-type opioid receptor. The AC50 in test [3] was greater than 30 µM; at Progesterone receptor, greater than 30 µM; in test [4] it was greater than 30 µM; in [5], greater than 30 µM; in test [6], greater than 30 µM; in test [7] it was 8.04 µM. Besides, in [8], the AC50 turned out to be 3.8 µM.

`CO[C@H]1[C@@H](O)C[C@H](O[C@H]2[C@@H](O)C[C@H](O[C@H]3[C@@H](O)C[C@H](O[C@H]4CC[C@@]5(C)[C@H](CC[C@@H]6[C@@H]5C[C@@H](O)[C@]5(C)[C@@H](C7=CC(=O)OC7)CC[C@]65O)C4)O[C@@H]3C)O[C@@H]2C)O[C@@H]1C` [METILDIGOXIN]: the AC50 (at D(3) dopamine receptor; on Estrogen receptor; on Histamine H3 receptor; in test [1]; in [2]; on Mu-type opioid receptor) was greater than 30 µM in each case. Moreover, the AC50 (in [3]; on Progesterone receptor; in [4]; in test [5]; in test [6]; in [7]) was greater than 30 µM in each case. In test [8], this compound had an AC50 greater than 30 µM.

For `CCOC(=O)[C@H](CCc1ccccc1)N[C@@H](C)C(=O)N1Cc2cc(OC)c(OC)cc2C[C@H]1C(=O)O` [MOEXIPRIL], the AC50 (on D(3) dopamine receptor; on Estrogen receptor; on Histamine H3 receptor; in test [1]; in test [2]; on Mu-type opioid receptor) was greater than 30 µM throughout. Besides, the concentration at half-maximal activity (AC50) in test [3] was 25.4 µM; at Progesterone receptor, greater than 30 µM; in [4] it was greater than 30 µM; in [5], greater than 30 µM; in test [6], greater than 30 µM; in test [7] it was greater than 30 µM. For the same compound, in [8], the half-maximal activity concentration (AC50) was greater than 30 µM.

Regarding `N[C@@H](Cc1c[nH]c2ccc(O)cc12)C(=O)O` [OXITRIPTAN], the concentration at half-maximal activity (AC50) (at D(3) dopamine receptor; on Estrogen receptor; on Histamine H3 receptor; in [1]; in test [2]; at Mu-type opioid receptor) was greater than 30 µM each time. In addition, the AC50 in [3] is greater than 30 µM; on Progesterone receptor it was greater than 30 µM; in [4], greater than 3 µM; in test [5], greater than 30 µM; in test [6], greater than 30 µM; in test [7] it was greater than 30 µM. In addition, half-maximal activity in [8] (AC50) was put at 15.5 µM.

With `C1CNCCN1` [PIPERAZINE], the AC50 (on D(3) dopamine receptor; on Estrogen receptor; on Histamine H3 receptor; in test [1]; in [2]; on Mu-type opioid receptor) was greater than 30 µM each time. The AC50 (in test [3]; on Progesterone receptor; in [4]; in test [5]; in test [6]; in test [7]) was greater than 30 µM in each case. Besides, the AC50 in [8] is greater than 30 µM.

For the compound `CO[C@H]1/C=C/O[C@@]2(C)Oc3c(C)c(O)c4c(O)c(cc(O)c4c3C2=O)NC(=O)/C(C)=C\C=C\[C@H](C)[C@H](O)[C@@H](C)[C@@H](O)[C@@H](C)[C@H](OC(C)=O)[C@@H]1C` [RIFAMYCIN], the AC50 (on D(3) dopamine receptor; on Estrogen receptor; on Histamine H3 receptor; in [1]; in [2]; at Mu-type opioid receptor) was greater than 30 µM in each case. For the same compound, the AC50 in [3] is greater than 30 µM; at Progesterone receptor it was greater than 30 µM; in test [4], greater than 30 µM; in [5] it was 28.7 µM; in test [6] it was greater than 30 µM; in test [7], greater than 30 µM. In test [8], this compound displayed an AC50 greater than 30 µM.

Regarding `CCCC(=O)O[C@H]1[C@H](C)O[C@@H](O[C@H]2[C@H](N(C)C)[C@@H](O)[C@H](O[C@H]3[C@@H](CC=O)C[C@@H](C)[C@@H](O)/C=C/C=C/C[C@@H](C)OC(=O)C[C@@H](O)[C@@H]3OC)O[C@@H]2C)C[C@@]1(C)OC(=O)CC` [ROKITAMYCIN], the AC50 (on D(3) dopamine receptor; on Estrogen receptor; at Histamine H3 receptor; in test [1]; in test [2]; on Mu-type opioid receptor) was greater than 30 µM throughout. Besides, the AC50 in test [3] was greater than 10 µM; on Progesterone receptor it was greater than 30 µM; in test [4] it was 8.78 µM; in [5] it was greater than 30 µM; in [6], greater than 30 µM; in test [7], greater than 30 µM. The compound also registered an AC50 in test [8] greater than 30 µM.

As for `CCCCCCCCCCCCCCCCCC(=O)NCCCC[C@H](NC(=O)CC[C@@H](NC(=O)[C@H](C)NC(=O)[C@@H](C)O[C@H]1[C@H](O)[C@@H](CO)OC(O)[C@@H]1NC(C)=O)C(N)=O)C(=O)O` (some centres not stated) [ROMURTIDE], the AC50 on D(3) dopamine receptor is greater than 30 µM; at Estrogen receptor it was 22.2 µM; at Histamine H3 receptor, greater than 30 µM; in test [1] it was 26 µM; in test [2], greater than 30 µM; at Mu-type opioid receptor, greater than 30 µM. The AC50 in [3] was greater than 30 µM; on Progesterone receptor, 2.94 µM; in test [4], 5.94 µM; in [5] it was greater than 30 µM; in test [6] it was greater than 30 µM; in test [7] it was greater than 30 µM. Besides, the AC50 in test [8] is greater than 30 µM.

As to `COc1cc([C@@H]2c3cc4c(cc3[C@@H](O[C@@H]3O[C@@H]5CO[C@@H](c6cccs6)O[C@H]5[C@H](O)[C@H]3O)[C@H]3COC(=O)[C@H]23)OCO4)cc(OC)c1O` [TENIPOSIDE], the AC50 (at D(3) dopamine receptor; at Estrogen receptor; at Histamine H3 receptor; in [1]; in test [2]; on Mu-type opioid receptor) was greater than 30 µM in each case. The AC50 in test [3] is greater than 3 µM; on Progesterone receptor it was greater than 30 µM; in [4] it was greater than 30 µM; in test [5], greater than 30 µM; in test [6], greater than 30 µM; in test [7], greater than 30 µM. In addition, the AC50 in test [8] is greater than 30 µM.
